Source: EP0208962B1, “Combination preparations from thrombocyte aggregation inhibitors, and their use” (HOECHST AKTIENGESELLSCHAFT, priority 1985, dated 1987)
Entries after “also recorded” stand apart in the source; their conditions may differ.

Columns and labels:
Humanthrombozyten [1] = assay: Induced aggregation of human platelets in vitro (Method 1, platelet-rich plasma, Born aggregometer); type: cell-based; settings: result in words; Tilsuprost compared with Prostacyclin
Description: Methode 1 - Induzierte Aggregation von Humanthrombozyten in vitro
Gesund erscheinenden männlichen und weiblichen Freiwilligen, die im vorangegangenen Zeitraum von 10 Tagen keine Medikamente eingenommen haben, wird durch vorsichtige Kanülierung der Antekubitalvene Blut entnommen, das sofort mit Natriumzitrat (ad 0,38%) stabilisiert wird. Durch 15minütiges Zentrifugieren bei 140 x g erhält man im Überstand plättchenreiches Plasma (PRP), dessen Thrombozytengehalt im Bereich 2,5 - 3,5·10⁺⁸ /ml (Coulter Counter) liegen soll. Die Plättchenaggregation wird optisch durch Messung der Lichttransmission im Born'schen Aggregometer verfolgt. Das Gesamtvolumen des Testansatzes beträgt 0,25 ml. Die Vorinkubationszeit mit dem Prüfpräparat beträgt 10 min bei 37°C, die Aggregationsinduktion erfolgt sodann mit 2 · 10⁻⁴ mol/l Arachidonsäure oder 1,7 µg/ml Kollagen. Das Prüfpräparat wird an fünf verschiedenen Spendern getestet. Aus den jeweiligen maximalen Aggregationsamplituden werden Dosis-Wirkungskurven erstellt und graphisch die arithmetisch gemittelten ED₅₀ (mol/l)-Werte bestimmt. Die Messungen erfolgen im Zeitraum von 1-6 Stunden nach Blutentnahme.

Humanthrombozyten [2] = assay: Cyclo AMP determination in human platelets (Method 3, 3H-adenine labelling); type: cell-based; settings: result in words
Method: Methode 3 - Cyclo AMP-Bestimmung in Humanthrombozyten
Die Methode folgt in allen Einzelheiten der Vorschrift in Nature (London) 292 (1981) 364: Statt Kaninchenthrombozyten wurde jedoch menschliches Thrombozytenkonzentrat mit ³H-Adenin bei 20°C für 90 min inkubiert. Das überschüssige Adenin wird, wie in Nature beschrieben, entfernt, die Wirkstoffe (s. Tab. 2) zugesetzt und erneut 5 min (37°C) inkubiert. Das gebildete ³H-cyclo AMP wird in der bekannten Weise abgetrennt und durch Radioaktivitätsmessung quantifiziert.

SMILES	Hemmstoffe der Aggregation von Humanthrombozyten (Humanthrombozyten [1])	cyclo AMP-Stimulierung in Humanthrombozyten (Humanthrombozyten [2])
CCCCC[C@H](O)/C=C/[C@@H]1[C@H]2C/C(=C/CCCC(=O)O)O[C@H]2C[C@H]1O [Prostacyclin, reference compound]	äquipotent	–
CCCCCC(O)C=CC1C(O)CC2N=C(SCCCCC(=O)O)CC21 (stereo not drawn) [Tilsuprost]	äquipotent	keine signifikante Stimulierung; also recorded: keine signifikante stimulierende Wirkung
